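GI50 is the concentration that inhibits growth by half. TGI is the concentration that stops growth completely.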
Legend:
Test in all cases: inhibition of tumour cell growth, NCI panel, 384-well format
786-0 renal = tested on: 786-0 renal
A498 renal = tested on: A498 renal
A549 NSCLC = tested on: A549 NSCLC
ACHN renal = tested on: ACHN renal
BT-549 breast = tested on: BT-549 breast
CAKI-1 renal = tested on: CAKI-1 renal
CCRF-CEM leukemia = tested on: CCRF-CEM leukemia
COLO 205 colon = tested on: COLO 205 colon
DU-145 prostate = tested on: DU-145 prostate
EKVX NSCLC = tested on: EKVX NSCLC
HCT-116 colon = tested on: HCT-116 colon
HCT-15 colon = tested on: HCT-15 colon
HL-60(TB) leukemia = tested on: HL-60(TB) leukemia
HOP-62 NSCLC = tested on: HOP-62 NSCLC
HOP-92 NSCLC = tested on: HOP-92 NSCLC
HS 578T breast = tested on: HS 578T breast
HT29 colon = tested on: HT29 colon
IGROV1 ovarian = tested on: IGROV1 ovarian
K-562 leukemia = tested on: K-562 leukemia
KM12 colon = tested on: KM12 colon
LOX IMVI melanoma = tested on: LOX IMVI melanoma
M14 melanoma = tested on: M14 melanoma
MALME-3M melanoma = tested on: MALME-3M melanoma
MCF7 breast = tested on: MCF7 breast
MDA-MB-231 breast = tested on: MDA-MB-231 breast
MDA-MB-435 melanoma = tested on: MDA-MB-435 melanoma
MDA-MB-468 breast = tested on: MDA-MB-468 breast
MOLT-4 leukemia = tested on: MOLT-4 leukemia
NCI-H226 lung = tested on: NCI-H226 lung
NCI-H23 lung = tested on: NCI-H23 lung
NCI-H322M lung = tested on: NCI-H322M lung
NCI-H460 NSCLC = tested on: NCI-H460 NSCLC
NCI-H522 lung = tested on: NCI-H522 lung
NCI/ADR-RES ovarian = tested on: NCI/ADR-RES ovarian
OVCAR-3 ovarian = tested on: OVCAR-3 ovarian
OVCAR-4 ovarian = tested on: OVCAR-4 ovarian
OVCAR-5 ovarian = tested on: OVCAR-5 ovarian
PC-3 prostate = tested on: PC-3 prostate
RPMI-8226 leukemia = tested on: RPMI-8226 leukemia
RXF 393 renal = tested on: RXF 393 renal
SF-268 CNS = tested on: SF-268 CNS
SF-295 CNS = tested on: SF-295 CNS
SF-539 CNS = tested on: SF-539 CNS
SK-MEL-2 melanoma = tested on: SK-MEL-2 melanoma
SK-MEL-28 melanoma = tested on: SK-MEL-28 melanoma
SK-MEL-5 melanoma = tested on: SK-MEL-5 melanoma
SK-OV-3 ovarian = tested on: SK-OV-3 ovarian
SN12C renal = tested on: SN12C renal
SNB-19 CNS = tested on: SNB-19 CNS
SNB-75 CNS = tested on: SNB-75 CNS
SR leukemia = tested on: SR leukemia
SW-620 colon = tested on: SW-620 colon
T-47D breast = tested on: T-47D breast
TK-10 renal = tested on: TK-10 renal
U251 glioblastoma = tested on: U251 glioblastoma
UACC-257 melanoma = tested on: UACC-257 melanoma
UACC-62 melanoma = tested on: UACC-62 melanoma
UO-31 renal = tested on: UO-31 renal

Q: Which GI50 ([…]-0 renal) does the source give for C[C@@H](Oc1ccc(Oc2cnc3ccc(Cl)cc3n2)cc1)C(=O)O here?
A: > 100 µM

Q: What about the TGI (786-0 renal) of the same compound?
A: > 100 µM

Q: And the GI50 (A498 renal)?
A: 86.9 µM

Q: And the TGI (A498 renal)?
A: > 100 µM

Q: What about the GI50 (A549 NSCLC) of the same compound?
A: 42.6 µM

Q: What about the TGI (A549 NSCLC) of the same compound?
A: > 100 µM

Q: And the GI50 (ACHN renal)?
A: 32.1 µM

Q: What about the TGI (ACHN renal) of the same compound?
A: > 100 µM

Q: What about the GI50 (BT-549 breast) of the same compound?
A: 58.3 µM

Q: What about the TGI (BT-549 breast) of the same compound?
A: > 100 µM

Q: And the GI50 (CAKI-1 renal)?
A: 85.3 µM

Q: And the TGI (CAKI-1 renal)?
A: > 100 µM

Q: What about the GI50 (CCRF-CEM leukemia) of the same compound?
A: 3.68 µM

Q: What about the TGI (CCRF-CEM leukemia) of the same compound?
A: > 100 µM

Q: And the GI50 (COLO 205 colon)?
A: 28.6 µM

Q: And the TGI (COLO 205 colon)?
A: > 100 µM

Q: What about the GI50 (DU-145 prostate) of the same compound?
A: 45.4 µM

Q: And the TGI (DU-145 prostate)?
A: > 100 µM

Q: What about the GI50 (EKVX NSCLC) of the same compound?
A: > 100 µM

Q: And the TGI (EKVX NSCLC)?
A: > 100 µM

Q: What about the GI50 (HCT-116 colon) of the same compound?
A: 77.4 µM

Q: And the TGI (HCT-116 colon)?
A: > 100 µM

Q: What about the GI50 (HCT-15 colon) of the same compound?
A: 73.7 µM

Q: And the TGI (HCT-15 colon)?
A: > 100 µM

Q: What about the GI50 (HL-60(TB) leukemia) of the same compound?
A: 4.5 µM

Q: And the TGI (HL-60(TB) leukemia)?
A: 26.1 µM

Q: And the GI50 (HOP-62 NSCLC)?
A: 43.3 µM

Q: What about the TGI (HOP-62 NSCLC) of the same compound?
A: > 100 µM

Q: What about the GI50 (HOP-92 NSCLC) of the same compound?
A: 96.4 µM

Q: What about the TGI (HOP-92 NSCLC) of the same compound?
A: > 100 µM

Q: And the GI50 (HS 578T breast)?
A: > 100 µM

Q: And the TGI (HS 578T breast)?
A: > 100 µM

Q: What about the GI50 (HT29 colon) of the same compound?
A: > 100 µM

Q: And the TGI (HT29 colon)?
A: > 100 µM

Q: And the GI50 (IGROV1 ovarian)?
A: 73.1 µM

Q: What about the TGI (IGROV1 ovarian) of the same compound?
A: > 100 µM

Q: And the GI50 (K-562 leukemia)?
A: 53.3 µM

Q: And the TGI (K-562 leukemia)?
A: > 100 µM

Q: And the GI50 (KM12 colon)?
A: > 100 µM

Q: And the TGI (KM12 colon)?
A: > 100 µM

Q: And the GI50 (LOX IMVI melanoma)?
A: > 100 µM

Q: And the TGI (LOX IMVI melanoma)?
A: > 100 µM

Q: And the GI50 (M14 melanoma)?
A: > 100 µM

Q: And the TGI (M14 melanoma)?
A: > 100 µM

Q: What about the GI50 (MALME-3M melanoma) of the same compound?
A: > 100 µM

Q: What about the TGI (MALME-3M melanoma) of the same compound?
A: > 100 µM

Q: And the GI50 (MCF7 breast)?
A: 22.5 µM

Q: What about the TGI (MCF7 breast) of the same compound?
A: > 100 µM

Q: And the GI50 (MDA-MB-231 breast)?
A: > 100 µM

Q: And the TGI (MDA-MB-231 breast)?
A: > 100 µM

Q: And the GI50 (MDA-MB-435 melanoma)?
A: > 100 µM

Q: And the TGI (MDA-MB-435 melanoma)?
A: > 100 µM

Q: And the GI50 (MDA-MB-468 breast)?
A: 24.8 µM

Q: And the TGI (MDA-MB-468 breast)?
A: > 100 µM

Q: And the GI50 (MOLT-4 leukemia)?
A: 1.46 µM

Q: What about the TGI (MOLT-4 leukemia) of the same compound?
A: 2.82 µM

Q: What about the GI50 (NCI-H226 lung) of the same compound?
A: > 100 µM

Q: What about the TGI (NCI-H226 lung) of the same compound?
A: > 100 µM

Q: What about the GI50 (NCI-H23 lung) of the same compound?
A: > 100 µM

Q: What about the TGI (NCI-H23 lung) of the same compound?
A: > 100 µM

Q: What about the GI50 (NCI-H322M lung) of the same compound?
A: > 100 µM

Q: What about the TGI (NCI-H322M lung) of the same compound?
A: > 100 µM

Q: What about the GI50 (NCI-H460 NSCLC) of the same compound?
A: 6.16 µM

Q: What about the TGI (NCI-H460 NSCLC) of the same compound?
A: > 100 µM

Q: And the GI50 (NCI-H522 lung)?
A: 25.9 µM

Q: What about the TGI (NCI-H522 lung) of the same compound?
A: > 100 µM

Q: And the GI50 (NCI/ADR-RES ovarian)?
A: 78.3 µM

Q: What about the TGI (NCI/ADR-RES ovarian) of the same compound?
A: > 100 µM

Q: And the GI50 (OVCAR-3 ovarian)?
A: > 100 µM

Q: What about the TGI (OVCAR-3 ovarian) of the same compound?
A: > 100 µM

Q: What about the GI50 (OVCAR-4 ovarian) of the same compound?
A: > 100 µM

Q: And the TGI (OVCAR-4 ovarian)?
A: > 100 µM

Q: And the GI50 (OVCAR-5 ovarian)?
A: > 100 µM

Q: And the TGI (OVCAR-5 ovarian)?
A: > 100 µM

Q: What about the GI50 (PC-3 prostate) of the same compound?
A: > 100 µM

Q: And the TGI (PC-3 prostate)?
A: > 100 µM

Q: And the GI50 (RPMI-8226 leukemia)?
A: > 100 µM

Q: And the TGI (RPMI-8226 leukemia)?
A: > 100 µM

Q: And the GI50 (RXF 393 renal)?
A: 97.5 µM

Q: And the TGI (RXF 393 renal)?
A: > 100 µM

Q: What about the GI50 (SF-268 CNS) of the same compound?
A: > 100 µM

Q: What about the TGI (SF-268 CNS) of the same compound?
A: > 100 µM

Q: And the GI50 (SF-295 CNS)?
A: 33.2 µM

Q: What about the TGI (SF-295 CNS) of the same compound?
A: > 100 µM

Q: What about the GI50 (SF-539 CNS) of the same compound?
A: 97.1 µM

Q: And the TGI (SF-539 CNS)?
A: > 100 µM

Q: And the GI50 (SK-MEL-2 melanoma)?
A: > 100 µM

Q: What about the TGI (SK-MEL-2 melanoma) of the same compound?
A: > 100 µM

Q: And the GI50 (SK-MEL-28 melanoma)?
A: > 100 µM

Q: And the TGI (SK-MEL-28 melanoma)?
A: > 100 µM

Q: What about the GI50 (SK-MEL-5 melanoma) of the same compound?
A: 62.5 µM

Q: And the TGI (SK-MEL-5 melanoma)?
A: > 100 µM

Q: And the GI50 (SK-OV-3 ovarian)?
A: > 100 µM

Q: What about the TGI (SK-OV-3 ovarian) of the same compound?
A: > 100 µM

Q: What about the GI50 (SN12C renal) of the same compound?
A: > 100 µM

Q: What about the TGI (SN12C renal) of the same compound?
A: > 100 µM

Q: And the GI50 (SNB-19 CNS)?
A: > 100 µM

Q: And the TGI (SNB-19 CNS)?
A: > 100 µM

Q: What about the GI50 (SNB-75 CNS) of the same compound?
A: > 100 µM

Q: And the TGI (SNB-75 CNS)?
A: > 100 µM

Q: What about the GI50 (SR leukemia) of the same compound?
A: 1.71 µM

Q: And the TGI (SR leukemia)?
A: 4.65 µM

Q: And the GI50 (SW-620 colon)?
A: 43.4 µM

Q: What about the TGI (SW-620 colon) of the same compound?
A: > 100 µM

Q: What about the GI50 (T-47D breast) of the same compound?
A: > 100 µM

Q: What about the TGI (T-47D breast) of the same compound?
A: > 100 µM

Q: And the GI50 (TK-10 renal)?
A: 61.4 µM

Q: What about the TGI (TK-10 renal) of the same compound?
A: > 100 µM

Q: And the GI50 (U251 glioblastoma)?
A: 63.9 µM

Q: And the TGI (U251 glioblastoma)?
A: > 100 µM

Q: What about the GI50 (UACC-257 melanoma) of the same compound?
A: > 100 µM

Q: And the TGI (UACC-257 melanoma)?
A: > 100 µM

Q: What about the GI50 (UACC-62 melanoma) of the same compound?
A: 36.5 µM

Q: What about the TGI (UACC-62 melanoma) of the same compound?
A: > 100 µM

Q: And the GI50 (UO-31 renal)?
A: 87.1 µM

Q: And the TGI (UO-31 renal)?
A: > 100 µM
